{
  "source": "patent US20190350907A1",
  "about": "“METHODS AND PHARMACEUTICAL COMPOSITIONS FOR REDUCING CD95- MEDIATED CELL MOTILITY” (INSERM (INSTITUT NATIONAL DE LA SANTÉ ET DE LA RECHERCHE …, priority 2017, published 2019)",
  "key": {"activated PBLs": {"test_system": "activated PBLs", "experiment": "CD95-mediated cell migration / endothelial transmigration of activated PBLs (Boyden chamber)", "type": "cell-based, human", "details": "result in words", "experimental": "FIG. 3. Drugs inhibit CD95-mediated Ca′ response and cell migration. A. Activated PBLs were loaded with FuraPE3-AM (1 μM) and pre-treated for 1 h with non-toxic concentrations of indicated compounds. T-cells were then stimulated with cl-CD95L (100 ng/mL; arrow). Ratio values (R) were normalized to pre-stimulated values (R0) to yield R/R0 values. Data represent means±the SD. B. Left panel: using Boyden chamber assay, cell migration of parental H9 cells and their counterpart lacking CD95 (CD95-KO) was assessed. Right panel: activated PBLs were pre-incubated in the presence or absence of the indicated drugs for 1 hour using non-toxic concentration and the CD95-mediated cell migration was assessed by Boyden chambers. C. Th17 cells were sorted from blood of healthy donors (peripheral blood mononuclear cell). FACS analyses showing the efficiency of Th17 (CCR6^+ CXCR3^−) cell sorting from healthy donors PBMCs. D. Th17 cells were pre-incubated in the presence or absence of the indicated drugs for 1 hour using non-toxic concentration and cell migration was assessed by Boyden chambers. After membrane hydration of Boyden chambers (Millipore, Molsheim, France) containing 8 μm pore membranes, 10^5 cells were added to the top chamber. The bottom chamber was filled with low serum (1%)-containing medium in the presence or absence of cl-CD95L (100 ng/ml). Cells were incubated for 24 h. To quantify invasion, cells were fixed with methanol and stained with Giemsa. Stained cells were then removed from the top-side of the membrane using a cotton-tipped swab and five representative pictures for each insert were taken of the invading cells from the reverse side. For each experiment, invading cells were lysed and absorbance at 560 nm was measured. Membranes (3 μm pore size) of a Boyden chamber were hydrated in sterile D-PBS (Millipore, Molsheim, France). Thereafter, activated T-lymphocytes (10^6) were added to the top chamber on a confluent monolayer of HUVEC in a low serum (1%)-containing medium. The bottom chamber was filled with low serum (1%)-containing medium in presence or absence of 100 ng/ml of cl-CD95L. In experiments using human sera, 500 μl of serum from either healthy donors or SLE patients was added to the lower chamber. Cells were cultured for 24 h at 37° C. in a 5% CO2, humidified incubator. Transmigrated cells were counted in the lower reservoir by flow cytometry using a standard of 2.5×10^4 fluorescent beads (Flow-count, Beckman Coulter)."}, "Th17 cells": {"test_system": "Th17 cells", "experiment": "CD95-mediated migration / endothelial transmigration of Th17 cells (Boyden chamber)", "type": "cell-based, human", "details": "non-toxic concentrations, 1 hour pre-incubation, Boyden chambers", "experimental": "FIG. 3. Drugs inhibit CD95-mediated Ca′ response and cell migration. A. Activated PBLs were loaded with FuraPE3-AM (1 μM) and pre-treated for 1 h with non-toxic concentrations of indicated compounds. T-cells were then stimulated with cl-CD95L (100 ng/mL; arrow). Ratio values (R) were normalized to pre-stimulated values (R0) to yield R/R0 values. Data represent means±the SD. B. Left panel: using Boyden chamber assay, cell migration of parental H9 cells and their counterpart lacking CD95 (CD95-KO) was assessed. Right panel: activated PBLs were pre-incubated in the presence or absence of the indicated drugs for 1 hour using non-toxic concentration and the CD95-mediated cell migration was assessed by Boyden chambers. C. Th17 cells were sorted from blood of healthy donors (peripheral blood mononuclear cell). […] D. Th17 cells were pre-incubated in the presence or absence of the indicated drugs for 1 hour using non-toxic concentration and cell migration was assessed by Boyden chambers. […] To quantify invasion, cells were fixed with methanol and stained with Giemsa. […] For each experiment, invading cells were lysed and absorbance at 560 nm was measured. […] Cell sorting efficiency was evaluated by FACS. […] Transmigrated cells were counted in the lower reservoir by flow cytometry using a standard of 2.5×10^4 fluorescent beads (Flow-count, Beckman Coulter)."}},
  "data": [
    {"compound": "O=C(O)c1cc(-c2ccc(F)cc2F)ccc1O", "note": "[diflunisal, 5-(2,4-difluorophenyl)-2-hydroxybenzoic acid]", "values": [
      {"measurement": "effect on endothelial transmigration of PBLs", "setting": "activated PBLs", "result": "inhibited"},
      {"measurement": "effect on endothelial transmigration in Th17 cells", "setting": "Th17 cells", "result": "abrogated"}
    ]},
    {"compound": "CC(C)c1nc(CN(C)C(=O)N[C@H](C(=O)N[C@@H](Cc2ccccc2)C[C@H](O)[C@H](Cc2ccccc2)NC(=O)OCc2cncs2)C(C)C)cs1", "note": "[ritonavir, 1,3-thiazol-5-ylmethyl N-[(2S,3S,5S)-3-hydroxy-5-[[(2S)-3-methyl-2-[[methyl-[(2-propan-2-yl-1,3-thiazol-4-yl)methyl]carbamoyl]amino]butanoyl]amino]-1,6-diphenylhexan-2-yl]carbamate]", "values": [
      {"measurement": "effect on endothelial transmigration of PBLs", "setting": "activated PBLs", "result": "inhibited"},
      {"measurement": "effect on endothelial transmigration in Th17 cells", "setting": "Th17 cells", "result": "abrogated"}
    ]}
  ]
}
